Patent US10028955B2, “FGFR inhibitor for use in the treatment of hypophosphatemic disorders” (Novartis AG, priority 2012, dated 2018)
Entries after “also recorded” stand apart in the source; their conditions may differ.

How the values were obtained:
Assay type in all cases: in vivo, mouse
[1] = system: Hyp mice; assay: Long-term (8 weeks, 3 qw) treatment of Hyp mice: bone radiography, micro-CT, histology/histomorphometry; settings: 50 mg/kg 3 qw for 56 days
Procedure: Radiographs of femur and tibia were taken ex vivo using a high-resolution radiography system (Faxitron MX-20). μCT measurements were performed ex vivo using a Scanco vivaCT 40 system (voxel size 6 μm; high resolution). For cancellous and cortical bone analyses a fixed threshold of 200 was used to determine the mineralized bone fraction from 50 slices. A Gaussian filter was applied to remove noise (σ=0.7; support=1).
As shown on FIG. 7 long-term FGFR inhibition enhances growth of long bones in Hyp mice. Taken together, these above results illustrate the beneficial effect of pharmacological FGFR inhibition in the context of aberrant FGF23 signaling and indicate a potential alleviation of the bone formation deficiency of Hyp mice. […] On FIG. 7.: Radiographs of femur (FIG. 7A) and tibia (FIG. 7B) from wild-type or Hyp mice treated with the FGFR inhibitor BGJ398 (50 mg/kg) or vehicle 3 qw for 56 days. Quantification of femoral (FIG. 7C) and tibial (FIG. 7D) length. Data are shown as average with SEM (n≥6). Data were compared by unpaired Student's t test; * p<0.05; ** p<0.01; *** p<0.001; n. s.: not significant.
Long-term FGFR inhibition improves cortex integrity in femoral bone of Hyp mice. To determine the effect of FGFR inhibitor treatment on bone structure in more detail, we performed microcomputed tomography (CT) analyses of the femoral cortex (sub growth plate area) from wild-type or Hyp mice treated with the FGFR inhibitor BGJ398 (50 mg/kg) or vehicle 3 qw for 56 days (FIG. 8A). Further relative cortical bone volume was quantified (FIG. 8B) and average cortex thickness determined (FIG. 8C).
Long-term treatment with BGJ398 restores growth plate organization Hyp mice. we also found an ameliorative effect of BGJ398-treatment on growth plate organization in Hyp mice in tibial histological sections (FIG. 9A). […] Mineralized tissue is indicated by white arrows, unmineralized osteoid is visualized by dark grey (indicated by black arrows). Growth plate structure is shown by light grey staining in the central part of the sections (FIG. 9B). Osteoid surface/bone surface and osteoid width (FIG. 9C) determined by histomorphometry in the tibial epiphysis of wild-type or Hyp mice treated with BGJ398 (50 mg/kg) or vehicle 3 qw for 56 days. Data are shown as average with SEM (n≥6). Data were compared by unpaired Student's t test; * p<0.05; ** p<0.01; *** p<0.001. In vehicle-treated Hyp mice the columnar organization and directional growth of chondrocytes was disturbed in contrast to the highly ordered structure in wild-type mice. In addition, mineralization was impaired in control Hyp mice, as indicated by the abundance of unmineralized osteoid.

[2] = system: Hyp mice; assay: Serum 1,25(OH)2D3, calcium and phosphate after single oral dose in wild-type and Hyp mice
From the text: (§1) FGFR inhibitor treatment induces 1,25(OH)2D3 biosynthesis and alleviates hypocalcemia and hypophosphatemia in Hyp mice. Wild-type C57BL/6 and Hyp (B6.Cg-PhexHyp/J) mice were obtained from The Jackson Laboratory. Dmp1-null mice were generated by Feng et al. (J. Dent. Res. 2003; 82:776-780.). All mice were kept in cages under standard laboratory conditions. Mice were fed on a standard rodent diet with water ad libitum.
Wild-type or Hyp mice received a single oral dose of the FGFR inhibitor BGJ398 in its free base form (50 mg/kg) or vehicle and were studied 7 h after administration of the compound. BGJ398 or vehicle only (PEG-300/Glucose 5%, 2:1 mix) was administered by oral gavage. Mice were used at 5-7 weeks of age in the case of single dose administrations. Mice were anesthetized by isoflurane inhalation and blood was collected from the caval vein. Mice were sacrificed by exsanguination and kidney and tibial and femoral bones were obtained. Concentrations of BGJ398 in kidney at 7 h was also determined.
(§2) Serum was separated from whole blood using clot activator centrifugation tubes. 100 μl of serum were used for determination of phosphate and calcium levels using the VetScan diagnostic profiling system. Serum concentrations of 1,25(OH)2D3 were determined using a radio receptor assay kit. FGF23 serum levels were analyzed by an ELISA detecting intact FGF23 (Kainos).
At 24 h post-dosing, single dose treatment with BGJ398 induced elevated serum calcium and phosphate levels in both wild-type and Hyp mice, thus alleviating the severe hypocalcemia and hypophosphatemia observed in control Hyp mice. […] Data in FIGS. 1 A and B is shown as relative levels to the wild-type control group (relative expression of 100) and are given as average with standard errors of the mean (SEM) (n≥6).
Similarly to example 1, wild-type or Hyp mice received a single oral dose of the FGFR inhibitor BGJ398 or vehicle and were studied […] after administration of the compound. Calcium (FIG. 4A) and phosphate (FIG. 4B) levels were determined from serum. Data are shown as average with SEM (n≥3). Data were compared by unpaired Student's t test; * p<0.05; ** p<0.01; *** p<0.001; n. s.: not significant. (C) BGJ398 concentrations in kidney at 7 h and 24 h post-administration. Values are given as average with SEM (n≥5).

[3] = system: renal FGF23 target genes Cyp27b1 and Cyp24a1; assay: Renal FGF23 target gene expression (qPCR) after single oral dose in wild-type and Hyp mice; settings: both wild-type and Hyp mice, single oral dose 50 mg/kg, 7 h
From the text: as §1
Wild-type or Hyp mice received a single oral dose of the FGFR inhibitor BGJ398 in its free base form (50 mg/kg) or vehicle and were studied 7 h after administration of the compound. BGJ398 or vehicle only (PEG-300/Glucose 5%, 2:1 mix) was administered by oral gavage. Mice were used at 5-7 weeks of age in the case of single dose administrations. […] Concentrations of BGJ398 in kidney at 7 h was also determined. […]
Gene expression was analyzed by quantitative real-time PCR (qPCR). […] Quantitative real-time PCR was performed in an iQ5 Real-Time PCR Detection System using a qPCR core kit for probe assay and an equivalent of 40 or 80 ng RNA of each sample. […]
FGF23 exerts its hypophosphatemic functions in part by transcriptional regulation of the 1,25(OH)2D3-metabolizing enzymes CYP27B1 and CYP24A1 in the kidney. We therefore monitored renal Cyp27b1 and Cyp24a1 expression upon single dose treatment with BGJ398 in Hyp mice and wild-type littermates.

[4] = system: Hyp mice; assay: Long-term (8 weeks, 3 qw) treatment of Hyp mice: body weight, tail length, serum parameters; settings: 50 mg/kg 3 qw for 56 days
Procedure: as §2
Long-term FGFR inhibition enhances body weight and tail length development and restores mineral ion homeostasis in Hyp mice. A long-term treatment studies was performed to monitor a potential amelioration of the rickets-like bone phenotypes of the Hyp mouse model. Treatments were performed over a course of 8 weeks. Owing to the persistence of elevated calcium and phosphate levels—extending beyond the clearance of BGJ398 from the kidney (FIG. 4)—mice were treated three times weekly (3 qw) with BGJ398 (50 mg/kg body weight) or vehicle for 56 days and analyzed similarly as explained above. […] Total body weight (FIG. 5B) and tail length gain (FIG. 5D) over the course of the treatment are depicted in FIG. 5 as well. Calcium (FIG. 5E) and phosphate (FIG. 5F) levels at the end of the 8 week treatment were determined from serum 24 h after the last administration and are shown in FIG. 5. Data are shown as average with SEM (n≥6). Data were compared by unpaired Student's t test; * p<0.05; ** p<0.01; *** p<0.001; n. s.: not significant.
Wild-type or Hyp mice were treated again with the FGFR inhibitor BGJ398 (50 mg/kg) or vehicle 3 qw for 56 days and FGF23 (FIG. 6A), parathyroid hormone (PTH) (FIG. 6B) and 1,25(OH)2D3 (FIG. 6C) levels were determined from serum at 24 h after the last dosing. PTH values were determined by separating the serum from whole blood using clot activator centrifugation tubes (Sarstedt). 20 μl of serum were used for determination PTH levels using a mouse PTH ELISA (Immutopics). Data were compared by unpaired Student's t test; * p<0.05; ** p<0.01; *** p<0.001; n. s.: not significant.

[5] = system: FGF23; assay: FGF23 bone mRNA and serum levels after single oral dose in wild-type and Hyp mice; settings: single oral dose 50 mg/kg, 7 h post-dosing
Procedure: Kidneys were sampled, total RNA was isolated. For RNA isolation from mouse tibial and femoral bones, epiphyses were cut off and bone marrow was removed by centrifugation at 4° C. Tissue was homogenized using a Precellyis 24 bead homogenizer and RNA was extracted with TRIzol reagent. RNA was purified subsequently by chloroform extraction, isopropanol precipitation and RNeasy Mini kit. For kidney RNA, approximately 60 mg of tissue was homogenized in 1.5 ml RTL buffer (Qiagen) with a rotor-stator homogenizer and RNA was purified with the RNeasy Mini kit. Random hexamer primed cDNA was synthesized with 0.5-2 μg RNA and MultiScribe MuLV reverse transcriptase.
Gene expression was analyzed by quantitative real-time PCR (qPCR). TaqMan Probe-Based Gene Expression assays were used for expression analysis of mouse Cyp27b1 (Mm01165919), Cyp24a1 (Mm00487244) and Gapdh (4352339E). Sequences of primers and FAM/TAMRA-labeled probes (Microsynth) for the detection of mouse Fgf23 were 5′-[…] (forward), 5′-[…] (reverse) and 5′-[…] (probe). Quantitative real-time PCR was performed in an iQ5 Real-Time PCR Detection System using a qPCR core kit for probe assay and an equivalent of 40 or 80 ng RNA of each sample. The data were normalized to Gapdh expression.
as §2
Besides the alleviation of the mineral ion deficiency in the two mouse models for FGF23-related hypophosphatemic rickets, we also noticed a repressive effect of FGFR inhibitor treatment on FGF23 levels in BGJ398-treated Hyp mice. Mice received a single oral dose of the FGFR inhibitor BGJ398 (50 mg/kg) or vehicle and were studied 7 h post-administration. FGF23 bone mRNA (FIG. 3A) and serum (FIG. 3B) levels in wild-type and Hyp mice treated with BGJ398 were determined. […]

[6] = system: Dmp1-null mice; assay: Serum calcium and phosphate after single oral dose in Dmp1-null mice; settings: single oral dose 50 mg/kg, 24 h post-administration
From the text: as §1
For analysis of calcium and phosphate levels mice received a single oral dose of the FGFR inhibitor BGJ398 (50 mg/kg) or vehicle and were studied 24 h post-administration. Phosphate and calcium levels were determined from serum. As for Hyp mice, pharmacological FGFR inhibition led to increased serum calcium and phosphate levels in Dmp1-null mice (FIGS. 2C and D, respectively). Data in FIG. 2 are shown as average with SEM (n≥6). Data were compared by unpaired Student's t test; * p<0.05; ** p<0.01; *** p<0.001; n. s.: not significant.

[7] = Hyp mice, single oral dose 50 mg/kg, 24 h post-dosing
[8] = both wild-type and Hyp mice, single oral dose 50 mg/kg, 24 h post-dosing, 50 mg/kg
[9] = wild-type or Hyp mice, single oral dose, 48 h after administration
[10] = Hyp mice, 24 h after last administration
[11] = Hyp mice, 24 h after last dosing

For CCN1CCN(c2ccc(Nc3cc(N(C)C(=O)Nc4c(Cl)c(OC)cc(OC)c4Cl)ncn3)cc2)CC1 [BGJ398, 3-(2,6-Dichloro-3,5-dimethoxy-phenyl)-1-{6-[4-(4-ethyl-piperazin-1-yl)-phenylamino]-pyrimid-4-yl}-1-methyl-urea], the “femoral cortex integrity (micro-CT)” value [1] was “appeared intact”, the “mineralization in the epiphyseal bone area adjacent to the growth plate” value [1] was “enhanced mineralization” and the “primary spongiosa in the metaphyseal sub-growth plate area” value [1] was “formation of primary spongiosa”. For the same molecule, the “widening of femoral and tibial growth plate areas” value [1] was “partially alleviate”, the “growth plate organization (tibial sections, Goldner staining)” value ([1]; 50 mg/kg) was “striking re-organization of the growth plate area” and the “femur length (radiography)” value ([1]; vs vehicle Hyp) was “significant elongation”. For the same molecule, the “tibia length (radiography)” value ([1]; vs vehicle Hyp) was “significant elongation”, the osteoid width ([1]; epiphyseal, metaphyseal and cortical bone compartments) was “strong reduction” and the “relative cortical bone volume” value ([1]; femoral cortex, 50 mg/kg) was “increases from pathological values to indistinguishable with normal values; also recorded: indistinguishable from wild-type mice”. For the same molecule, the average cortex thickness ([1]; femoral cortex, vs vehicle Hyp, 50 mg/kg) was “significantly increased compared to vehicle-treated Hyp mice”, the “Osteoid surface/bone surface (OS/BS ratio)” value ([1]; histomorphometry) was “attenuation of the increased OS/BS ratio” and the “columnar stacks of chondrocytes” value ([1]; tibial sections) was “re-formation”. For the same molecule, the “height of the proliferative zone” value ([1]; tibial sections) was “increased height”, the “serum calcium levels compared to vehicle-treated wild-type mice” value [2, 7] was “indistinguishable from vehicle-treated wild-type mice” and the “serum phosphate concentrations compared to wild-type mice” value [2, 7] was “still significantly lower compared to serum levels of wild-type mice”. The “1,25(OH)2D3 serum levels” value ([2]; both wild-type and Hyp mice, single oral dose 50 mg/kg, 7 h post-dosing) was “strong increase”, the serum calcium levels [2, 8] was “increased; also recorded: elevated” and the serum phosphate levels [2, 8] was “increased; also recorded: elevated”. For the same molecule, the calcium serum levels [2, 9] was “persistent increase”, the phosphate serum levels [2, 9] was “persistent increase” and the “renal Cyp24a1 expression” value [3] was “almost complete loss of Cyp24a1 expression”. For the same molecule, the “renal Cyp27b1 expression” value [3] was “increased Cyp27b1 levels”, the serum calcium levels [4, 10] was “complete normalization” and the serum phosphate levels [4, 10] was “complete normalization”. For the same molecule, the FGF23 serum concentrations [4, 11] was “further increase”, the “PTH levels (serum)” value [4, 11] was “normalization” and the tail length development ([4]; Hyp mice, vs control Hyp) was “much stronger increase in tail length compared to control Hyp mice”. For the same molecule, the body weight development ([4]; Hyp mice, vs vehicle Hyp) was “stronger increase in body weight compared to the vehicle control group”, the tail length gain ([4]; Hyp mice, vs vehicle wild-type) was “significantly higher compared to vehicle-treated wild-type littermates” and the “1,25(OH)2D3 serum levels” value ([4]; wild-type or Hyp mice, 24 h after last dosing) was “not significantly different among the treatment groups”. The “reduction of serum FGF23 levels” value ([5]; Hyp mice) was “approximately 50%”, the “FGF23 expression in bone (mRNA)” value ([5]; both Hyp and wild-type mice) was “almost abolished” and the “serum FGF23 levels” value ([5]; wild-type mice) was “undetectable”. The serum calcium levels [6] was “increased” and the serum phosphate levels [6] was “increased”.
